Source: patent publication US20240238310A1, “MODULATION OF SEX STEROID HORMONE PRODUCTION AND ACTIVITY FOR TREATING AND PREVENTING HERNIAS” (Northwestern University, priority 2020, published 2024)
“Also recorded” adds a separate entry of the source.

How the values were obtained:
Arom^hum mice [1] = assay: Prevention of inguinal hernia, LAMT fibrosis and atrophy in Arom^hum mice (treatment started before hernia formation); type: in vivo, mouse; settings: Arom^hum mice
From the text: Increased LAMT estrogen levels are associated with LAMT fibrosis, myocyte atrophy, and inguinal hernia development; aromatase inhibitor prevents hernia formation in Arom^hum mice. […] None of the WT littermates (n=32) developed hernia.
In the mouse, the scrotum is connected to the peritoneal cavity with a narrow funicular (or inguinal) canal, whose walls are composed of LAMT. Structurally normal LAMT is essential to maintain the tone of this canal and prevents herniation of bowel. LAMT is the critical site affected by E2 excess (FIGS. 2, 5, 6). As in many other tissues, stromal cells intimately interact with parenchymal cells (myocytes) in UAMT and LAMT (FIG. 6). […] Administration of the aromatase inhibitor letrozole started at 3 weeks of age for 12 weeks prevented LAMT atrophy, fibrosis and herniation in all (10 out of 10) treated Arom^hum mice (FIG. 6B).
Experiment 1a1: Does aromatase inhibition arrest or reverse LAMT fibrosis, atrophy, and hernia in male Arom^hum mice? […] The hernias will be classified as mild, early moderate, late moderate and severe if the bulging area through muscle tissue is <100 mm^2 (˜4 weeks), 100-150 mm^2 (˜6 weeks), 150-200 mm^2 (˜8 weeks), or >200 mm^2 (˜10 weeks), respectively. First, we will treat Arom^hum mice showing mild hernias with letrozole (SC 10 μg/day release pellet) or vehicle starting at 4 weeks of age for 12 weeks^63. We will assess whether muscle fibrosis, atrophy, and hernia can be arrested or reversed in mildly (<100 mm^2) affected animals. If early letrozole treatment can arrest mild muscle fibrosis, we will delay the initiation of treatment to 6, 8, or 10 weeks of age to determine whether letrozole can arrest or reverse the growth of the early moderate (6 weeks), late moderate (8 weeks) or severe hernia (10 weeks). Hernia development will be monitored by visual inspection twice a week for 12 weeks after letrozole administration and will be reported as hernia incidence using Kaplan-Meier curve analysis. The length and width of the observed hernias will be measured to calculate the surface area (length×width). After completion of the treatment, the mice will be dissected, and LAMT, UAMT (control), and serum will be collected. One hundred mg of frozen muscle tissue will be obtained to measure tissue estrogen levels. Circulating and tissue (LAMT and UAMT) E2 levels will be measured at the IIT Research Institute by Dr. Miguel Muzzio (see letter) using LC-MS^2. We will use immunoblotting and IHC to determine ERα expression in LAMT and UAMT.
This finding was published in PNAS in Oct., 2018. […] We treated Arom^hum mice with fulvestrant for 12 weeks starting at the age of 4 weeks (before hernia formation). As expected, placebo-treated Arom^hum mice developed scrotal hernias.

Arom^hum mice [2] = assay: Reversal of established scrotal hernias and LAMT fibrosis/atrophy in Arom^hum mice; type: in vivo, mouse
Method: FIG. 16. […] Arom^hum mice with small to moderate size of hernias were treated with placebo or letrozole for 12 weeks. (A) Schematic diagram depicts the schedule of drug administration. (B) The area of scrotal hernia in Arom^hum mice. (C) Representative photomicrographs of Masson's trichrome-stained LAMT sections of WT and Arom^hum mice. Quantification of the percentage of connective tissue or fibrotic area (D) or myofiber area (E) in WT and Arom^hummice. 10 representative high-power fields were analyzed in each tissue. One-way ANOVA with Tukey's multiple comparison test, **p<0.01, ***p<0.001. Scale bars, […]. n=5 mice per group.
FIG. 17. […] Arom^hum mice with small to moderate size of hernias were treated with placebo or letrozole for 3 weeks. (A) Schematic diagram depicts the schedule of drug administration. (B) The area of scrotal hernia in Arom^hum mice.
FIG. 18. E2/ER antagonist fulvestrant reverses the large size of scrotal hernias and rescues LAMT fibrosis and myocyte atrophy in Arom^hum mice. Arom^hum mice with large size of hernias were treated with placebo or fulvestrant for 12 weeks. (A) Schematic diagram depicts the schedule of drug administration. (B) The area of scrotal hernia in Arom^hum mice. (C) Representative photomicrographs of Masson's trichrome-stained LAMT sections of WT and Arom^hum mice. Quantification of the percentage of connective tissue or fibrotic area (D) in WT and Arom^hum mice. 10 representative high-power fields were analyzed in each tissue. (E) Hydroxyproline content in LAMT of WT and Arom^hum mice treated with fulvestrant. One-way ANOVA with Tukey's multiple comparison test, ***p<0.001, ****p<0.0001. n=5 mice per group.
FIG. 19. Aromatase inhibitor letrozole reverses the large size of scrotal hernias in Arom^hum mice. Arom^hum mice with large size of hernias were treated with placebo or letrozole for 12 weeks. (A) Schematic diagram depicts the schedule of drug administration. (B) The area of scrotal hernia in Arom^hum mice.
FIG. 20. E2/ER antagonist raloxifene reverses the large size of scrotal hernias in Arom^hum mice. Arom^hum mice with large size of hernias were treated with placebo or raloxifene for 3 weeks. (A) Schematic diagram depicts the schedule of drug administration. (B) The area of scrotal hernia in Arom^hum mice.
We treated Arom^hum mice with letrozole for 12 weeks. […] Raloxifene is a selective estrogen receptor modulator (SERM) and is currently used to prevent and treat osteoporosis in postmenopausal women.
We treated Arom^hum mice with fulvestrant for 12 weeks when the hernia area was over 200 mm^2. Large hernias were completely disappeared after 3- to 4-week of fulvestrant administration. […] We measured the total amount of collagen (largely type I and III), a major component of ECM, through measuring the content of hydroxyproline(1).

C[C@]12CC[C@@H]3c4ccc(O)cc4C[C@@H](CCCCCCCCC[S+]([O-])CCCC(F)(F)C(F)(F)F)[C@H]3[C@@H]1CC[C@@H]2O (some centres unmarked) [fulvestrant]
development of LAMT fibrosis (fibrotic area, Masson's trichrome) (Arom^hum mice [1]; 4-week-old mice treated for 12 weeks, FIGS. 15C and D): rescues lower abdominal muscle tissue (LAMT) fibrosis and myocyte atrophy
myofiber atrophy (myofiber cross-sectional area) (Arom^hum mice [1]; 4-week-old mice treated for 12 weeks, FIGS. 15C and E): completely prevented myofiber atrophy
hernia formation (Arom^hum mice [1]; fulvestrant for 12 weeks starting at the age of 4 weeks (before hernia formation)): completely prevented by fulvestrant administration
myofiber atrophy / myofiber cross-section area (Arom^hum mice [2]; Arom^hum mice with large hernias, fulvestrant 12 weeks, FIG. 18C): completely reversed myofiber atrophy; also recorded: increase in myofiber cross-section area
total collagen content in LAMT (hydroxyproline assay) (Arom^hum mice [2]; Arom^hum mice with large hernias, fulvestrant 12 weeks, FIG. 18E): decreased to normal levels similar to WT mice
established fibrosis in the LAMT (Arom^hum mice [2]; Arom^hum mice with large hernias, fulvestrant 12 weeks, FIGS. 18C and D): completely reversed with fulvestrant treatment; also recorded: decrease in muscle fibrosis
reversal of large and severe hernias (>200 mm^2) (Arom^hum mice [2]; Arom^hum mice, fulvestrant alone for 12 weeks, started when hernia area was over 200 mm^2, FIG. 18): can reverse large and severe hernias
time of administration after which large hernias completely disappeared (Arom^hum mice [2]; Arom^hum mice, hernia area over 200 mm^2): 3- to 4 week
